The source of these data is patent US11116765B2 (GRIFOLS, S.A., priority 2014, dated 2021).

Where two headings read alike, the source gives them in different places.

For assay [1], the system named is M. avium 104. Conditions: THP-1 human macrophages, 20 mcg/mL.
Assay [2] relates to M. avium 104. Conditions: THP-1 human macrophages, 200 mcg/mL.
Assay [3] concerns M. avium 104. Conditions: 100 mcg/mL.
The subject of assay [4] is Mycobacterium avium subsp hominissuis (MAH) MAC104 strain. Put plainly: MAH lung infection in C57BL/6 mice, intranasal treatment. The class given is in vivo. Conditions: 3 weeks.
A further assay relates to M. abscessus 105. Conditions: 100 mcg/mL.
For a further assay, the system named is M. avium. Conditions: incubation of M. avium with antibiotic; cited from earlier work.

As for `O=C(O)c1cn(C2CC2)c2cc(N3CCNCC3)c(F)cc2c1=O` [Ciprofloxacin, ciprofloxacin], the “Colonization in macrophages, Time: 4 days” value in the assay on M. avium 104 [1] is 1.1 ± 0.4 × 10^4; in the assay with M. avium 104 [2], 5.0 ± 0.3 × 10^4. Further, the “Biofilm Colonization, Time: 4 Days” value is 4.0 ± 0.3 × 10^7 in the assay on M. avium 104 [3] and 3.0 ± 0.5 × 10^7 with M. abscessus 105. Further, the “effect on the growth of MAH in the lungs of mice compared with saline control” value in assay [4] is on record as “no significant effect”.
On to `CC1(C)S[C@@H]2[C@H](NC(=O)[C@H](N)c3ccccc3)C(=O)N2[C@H]1C(=O)O` [ampicillin], for which, in the assay on M. avium, the “effect on M. avium biofilm formation” value is recorded as “no effect on biofilm”.
Turning to `[H]/N=C(/N)N[C@H]1[C@H](O)[C@@H](O)[C@H](O[C@@H]2O[C@@H](C)[C@](O)(C=O)[C@H]2O[C@@H]2O[C@@H](CO)[C@H](O)[C@@H](O)[C@@H]2NC)[C@@H](N/C(N)=N\[H])[C@@H]1O` [streptomycin], the “effect on M. avium biofilm formation” value in the assay on M. avium was “increase”.
